Experiments:
Type in all cases: functional
Prevotella baroniae = test: Antimicrobial activity in Prevotella baroniae by CLSI agar dilution method; conditions: Segatella baroniae
Hoylesella oralis = test: Antimicrobial activity in Prevotella oralis group by CLSI agar dilution method
Prevotella veroralis = test: Antimicrobial activity in Prevotella veroralis by CLSI agar dilution method
Prevotella bergensis = test: Antimicrobial activity in Prevotella bergensis by CLSI agar dilution method; conditions: Hallella bergensis
Prevotella salivae = test: Antimicrobial activity in Prevotella salivae by CLSI agar dilution method; conditions: Segatella salivae
Hoylesella loescheii = test: Antimicrobial activity in Prevotella loescheii by CLSI agar dilution method
Prevotella sp. = test: Antimicrobial activity in Prevotella sp.by CLSI agar dilution method
[1] = system: Porphyromonas asaccharolytica; test: Antimicrobial activity in Porphyromonas asaccharolytica by CLSI agar dilution method
Fusobacterium nucleatum = test: Antimicrobial activity in Fusobacterium nucleatum by CLSI agar dilution method
[2] = system: Fusobacterium necrophorum; test: Antimicrobial activity in Fusobacterium necrophorum by CLSI agar dilution method
Fusobacterium mortiferum = test: Antimicrobial activity in Fusobacterium mortiferum by CLSI agar dilution method
Fusobacterium varium = test: Antimicrobial activity in Fusobacterium varium by CLSI agar dilution method
Finegoldia magna = test: Antimicrobial activity in Finegoldia magna by CLSI agar dilution method
Parvimonas micra = test: Antimicrobial activity in Micromonas micros by CLSI agar dilution method
[3] = system: Peptostreptococcus anaerobius; test: Antimicrobial activity in Peptostreptococcus anaerobius by CLSI agar dilution method
[4] = system: Peptoniphilus asaccharolyticus; test: Antimicrobial activity in Peptoniphilus asaccharolyticus by CLSI agar dilution method
Anaerococcus tetradius = test: Antimicrobial activity in Anaerococcus tetradius by CLSI agar dilution method
Anaerococcus prevotii = test: Antimicrobial activity in Anaerococcus prevotii by CLSI agar dilution method
Lactobacillus = test: Antimicrobial activity in Lactobacillus by CLSI agar dilution method
Bifidobacterium = test: Antimicrobial activity in Bifidobacterium by CLSI agar dilution method
Cutibacterium acnes = test: Antimicrobial activity in Propionibacterium acnes by CLSI agar dilution method
Actinomyces = test: Antimicrobial activity in Actinomyces by CLSI agar dilution method
Eggerthella lenta [5] = test: Antimicrobial activity in Eggerthella lenta by CLSI agar dilution method
Clostridium perfringens = test: Antimicrobial activity in Clostridium perfringens by CLSI agar dilution method
Clostridioides difficile = test: Antimicrobial activity in Clostridium difficile by CLSI agar dilution method
Clostridium sp. = test: Antimicrobial activity in Clostridium sp. by CLSI agar dilution method
Clostridium tertium = test: Antimicrobial activity in Clostridium tertium by CLSI agar dilution method
Thomasclavelia ramosa = test: Antimicrobial activity in Clostridium ramosum by CLSI agar dilution method
Clostridium cadaveris = test: Antimicrobial activity in Clostridium cadaveris by CLSI agar dilution method
[6] = system: Paraclostridium bifermentans; test: Antimicrobial activity in Clostridium bifermentans by CLSI agar dilution method
[Clostridium] innocuum = Antimicrobial activity in Clostridium innocuum by CLSI agar dilution method
[7] = system: Paeniclostridium sordellii; test: Antimicrobial activity in Clostridium sordellii by CLSI agar dilution method; conditions: Paraclostridium sordellii
Clostridium butyricum = test: Antimicrobial activity in Clostridium butyricum by CLSI agar dilution method
[8] = system: Enterocloster clostridioformis; test: Antimicrobial activity in Clostridium clostridioforme by CLSI agar dilution method
Bacteroides fragilis [9] = test: Antimicrobial activity in Bacteroides fragilis by CLSI agar dilution method
[10] = system: Bacteroides thetaiotaomicron; test: Antimicrobial activity in Bacteroides thetaiotaomicron by CLSI agar dilution method
Bacteroides ovatus = test: Antimicrobial activity in Bacteroides ovatus by CLSI agar dilution method
Phocaeicola vulgatus = test: Antimicrobial activity in Bacteroides vulgatus by CLSI agar dilution method
[11] = system: Parabacteroides distasonis; test: Antimicrobial activity in Bacteroides distasonis by CLSI agar dilution method
Bacteroides uniformis = test: Antimicrobial activity in Bacteroides uniformis by CLSI agar dilution method
Bacteroides stercoris = test: Antimicrobial activity in Bacteroides stercoris by CLSI agar dilution method
Prevotella bivia = test: Antimicrobial activity in Prevotella bivia by CLSI agar dilution method
Prevotella buccae = test: Antimicrobial activity in Prevotella buccae by CLSI agar dilution method; conditions: Segatella buccae
[12] = system: Prevotella melaninogenica; test: Antimicrobial activity in Prevotella melaninogenica by CLSI agar dilution method
Prevotella denticola = test: Antimicrobial activity in Prevotella denticola by CLSI agar dilution method
Prevotella intermedia = test: Antimicrobial activity in Prevotella intermedia by CLSI agar dilution method
Prevotella nigrescens = test: Antimicrobial activity in Prevotella nigrescens by CLSI agar dilution method
Prevotella corporis = test: Antimicrobial activity in Prevotella corporis by CLSI agar dilution method
Prevotella disiens = test: Antimicrobial activity in Prevotella disiens by CLSI agar dilution method
Tissierella praeacuta = test: Antimicrobial activity in Clostridium hastiforme by CLSI agar dilution method
Bacteroides fragilis [13] = test: Antimicrobial activity in Bacteroides fragilis ATCC 25285 by CLSI agar dilution method
[14] = system: Bacteroides thetaiotaomicron; test: Antimicrobial activity in Bacteroides thetaiotaomicron ATCC 29741 by CLSI agar dilution method
Eggerthella lenta [15] = test: Antimicrobial activity in Eggerthella lenta ATCC 43055 by CLSI agar dilution method
Porphyromonas gingivalis = test: Antimicrobial activity in Porphyromonas gingivalis by CLSI agar dilution method

C[C@@H](O)[C@H]1C(=O)N2C(C(=O)O)=C(S[C@H]3CC[S@@+]([O-])C3)S[C@H]12 [SULOPENEM]
2 µg/mL: MIC90 [3] | MIC (Clostridioides difficile) | MIC50 (Clostridioides difficile) | MIC50 (Clostridium sp.) | MIC (Tissierella praeacuta)
≤ 0.016 µg/mL: MIC (Hoylesella oralis) | MIC [1] | MIC (Fusobacterium nucleatum) | MIC50 (Fusobacterium nucleatum) | MIC [2] | MIC50 [2]
0.03 µg/mL: MIC (Prevotella sp.) | MIC90 (Fusobacterium nucleatum) | MIC [4] | MIC (Anaerococcus prevotii) | MIC (Prevotella corporis) | MIC (Prevotella disiens) | MIC (Porphyromonas gingivalis)
0.5 µg/mL: MIC50 (Fusobacterium mortiferum) | MIC90 (Fusobacterium mortiferum) | MIC50 (Fusobacterium varium) | MIC90 (Fusobacterium varium) | MIC50 [3] | MIC50 (Actinomyces) | MIC (Thomasclavelia ramosa) | MIC [6] | MIC (Clostridium butyricum) | MIC90 (Bacteroides fragilis [9]) | MIC90 [10] | MIC90 (Bacteroides ovatus) | MIC50 (Phocaeicola vulgatus) | MIC50 [11]
0.125 µg/mL: MIC (Prevotella bergensis) | MIC (Hoylesella loescheii) | MIC (Parvimonas micra) | MIC50 (Parvimonas micra) | MIC90 (Parvimonas micra) | MIC50 (Anaerococcus tetradius) | MIC (Cutibacterium acnes) | MIC50 (Cutibacterium acnes) | MIC50 (Clostridium perfringens) | MIC [7] | MIC50 (Bacteroides fragilis [9]) | MIC50 (Prevotella bivia) | MIC50 (Prevotella buccae) | MIC50 [12] | MIC50 (Prevotella denticola) | MIC90 (Prevotella intermedia) | MIC90 (Prevotella nigrescens) | MIC50 (Prevotella disiens)
0.06 µg/mL: MIC (Prevotella baroniae) | MIC (Prevotella veroralis) | MIC (Prevotella salivae) | MIC50 [4] | MIC50 (Prevotella intermedia) | MIC50 (Prevotella nigrescens) | MIC50 (Prevotella corporis) | MIC (Bacteroides fragilis [13]) | MIC [14] | MIC (Eggerthella lenta [15])
1 µg/mL: MIC90 (Bifidobacterium) | MIC (Eggerthella lenta [5]) | MIC50 (Eggerthella lenta [5]) | MIC90 (Eggerthella lenta [5]) | MIC (Clostridium tertium) | MIC50 (Clostridium tertium) | MIC [8] | MIC90 (Phocaeicola vulgatus) | MIC90 [11]
0.25 µg/mL: MIC50 (Finegoldia magna) | MIC90 (Finegoldia magna) | MIC90 (Anaerococcus tetradius) | MIC50 (Bifidobacterium) | MIC90 (Cutibacterium acnes) | MIC (Actinomyces) | MIC90 (Clostridium perfringens) | MIC (Clostridium cadaveris) | MIC ([Clostridium] innocuum) | MIC [10] | MIC50 [10] | MIC (Bacteroides ovatus) | MIC50 (Bacteroides ovatus) | MIC (Bacteroides uniformis) | MIC50 (Bacteroides uniformis) | MIC (Bacteroides stercoris) | MIC50 (Bacteroides stercoris) | MIC90 (Prevotella bivia) | MIC90 (Prevotella buccae) | MIC90 [12] | MIC90 (Prevotella denticola)
> 8 µg/mL: MIC50 (Lactobacillus) | MIC90 (Lactobacillus)
4 µg/mL: MIC90 (Clostridioides difficile) | MIC90 (Clostridium sp.)

From ChEMBL document CHEMBL1649156, “Antianaerobic activity of sulopenem compared to six other agents” (2009)
